Measurements: patent US8957108B2, “Use of 5,6-dimethylxanthenone-4-acetic acid as an antiviral agent” (University of Maryland, Baltimore, priority 2006, dated 2015)

Tested on: C57BL/6J macrophages
[1] = DMXAA 3 h vs unstimulated wild-type cells
[2] = ratio of fold change, wild-type vs IFN-β-deficient cells

In the case of Cc1ccc2c(=O)c3cccc(CC(=O)O)c3oc2c1C [DMXAA, 5,6-dimethylxanthenone-4-acetic acid], the “ZBP1 Fold Change: BL/6” value [1] is reported as 15.4 fold, the “ZNF313 Fold Change: BL/6” value [1] is reported as 3.2 fold and the “number of modulated genes that are IFN-β-dependent” value (of the 136 genes, 3-fold difference wild-type vs IFN-β−/−) is reported as 77 genes. The “number of genes with ≧3-fold change in expression” value (of ˜14,000 genes analyzed, 3 h, vs medium-treated cells) was 136 genes, the “2310043N10RIK WT/KO” value [2] was 3.2 and the “5830484A20RIK WT/KO” value [2] was 1.4. For the same compound, the “ABCB1 WT/KO” value [2] was 1.1, the “ABL1 WT/KO” value [2] was 5.6 and the “ABLIM1 WT/KO” value [2] was 7.1. The “ACVR1B WT/KO” value [2] was 1.9, the “ADRB2 WT/KO” value [2] was 1.9 and the “AFTIPHILIN WT/KO” value [2] was 3.0. For the same compound, the “AKAP12 WT/KO” value [2] was 2.2, the “AMPD3 WT/KO” value [2] was 1.5 and the “AP2A2 WT/KO” value [2] was 1.1. For the same compound, the “APBB1IP WT/KO” value [2] was 2.2, the “APOBEC3F WT/KO” value [2] was 2.5 and the “ARHGEF3 WT/KO” value [2] was 2.1. For the same compound, the “ARID3A WT/KO” value [2] was 1.6, the “ARL4C WT/KO” value [2] was 1.0 and the “ASF1A WT/KO” value [2] was 1.8. For the same compound, the “ATRX WT/KO” value [2] was 1.6, the “B3GAT3 WT/KO” value [2] was 5.5 and the “BACE1 WT/KO” value [2] was 3.2. For the same compound, the “BAMBI WT/KO” value [2] was 2.7, the “BCL2L1 WT/KO” value [2] was 6.0 and the “BCL2 WT/KO” value [2] was 5.4. The “BHLHB2 WT/KO” value [2] was 3.0, the “BID WT/KO” value [2] was 1.1 and the “C8ORF4 WT/KO” value [2] was 8.7. The “C9ORF26 WT/KO” value [2] was 2.1, the “CCL2 WT/KO” value [2] was 21.7 and the “CCL3 WT/KO” value [2] was 4.1. For the same compound, the “CCL4 WT/KO” value [2] was 1.9, the “CCL5 WT/KO” value [2] was 1.4 and the “CCL7 WT/KO” value [2] was 3.2. For the same compound, the “CCL13 WT/KO” value [2] was 2.9, the “CCND2 WT/KO” value [2] was 3.2 and the “CCNE1 WT/KO” value [2] was 1.1. For the same compound, the “CCNF WT/KO” value [2] was 4.4, the “CCRN4L WT/KO” value [2] was 3.6 and the “CD37 WT/KO” value [2] was 4.7. The “CD40 WT/KO” value [2] was 7.9, the “CD86 WT/KO” value [2] was 1.8 and the “CD274 WT/KO” value [2] was 5.9. For the same compound, the “CDC6 WT/KO” value [2] was 1.2, the “CDC7 WT/KO” value [2] was 2.2 and the “CDC37L1 WT/KO” value [2] was 1.7. For the same compound, the “CDKN1A WT/KO” value [2] was 2.7, the “CEBPB WT/KO” value [2] was 1.7 and the “CITED2 WT/KO” value [2] was 4.6. For the same compound, the “CLCA1 WT/KO” value [2] was 2.5, the “CNR2 WT/KO” value [2] was 4.0 and the “CREBBP WT/KO” value [2] was 0.7. The “CXCL10 WT/KO” value [2] was 3.3, the “DAXX WT/KO” value [2] was 4.9 and the “DSCR1 WT/KO” value [2] was 1.3. The “FGD6 WT/KO” value [2] was 1.5, the “FGL2 WT/KO” value [2] was 2.9 and the “GBP2 WT/KO” value [2] was 3.1. For the same compound, the “GBP4 WT/KO” value [2] was 1.6, the “GBP6 WT/KO” value [2] was 1.6 and the “GYPC WT/KO” value [2] was 1.3. The “IFI16 WT/KO” value [2] was 1.6, the “IFI35 WT/KO” value [2] was 3.3 and the “IFI203 WT/KO” value [2] was 6.4. For the same compound, the “IFI205 WT/KO” value [2] was 3.5, the “IFIH1 WT/KO” value [2] was 1.4 and the “IFIT1 WT/KO” value [2] was 1.5. For the same compound, the “IFIT2 WT/KO” value [2] was 1.9, the “IFIT3 WT/KO” value [2] was 3.1 and the “IFNA5 WT/KO” value [2] was 12.9. The “IFNA6 WT/KO” value [2] was 8.6, the “IFNB1 WT/KO” value [2] was 178.6 and the “IFNG WT/KO” value [2] was 0.8. For the same compound, the “IGTP WT/KO” value [2] was 11.2, the “IIGP1 WT/KO” value [2] was 18.7 and the “IL6 WT/KO” value [2] was 41.8. The “IL12B WT/KO” value [2] was 3.2, the “IL15RA WT/KO” value [2] was 4.5 and the “IL15 WT/KO” value [2] was 4.3. For the same compound, the “IRF1 WT/KO” value [2] was 5.9, the “IRF2 WT/KO” value [2] was 3.5 and the “IRGM WT/KO” value [2] was 2.9. For the same compound, the “ISG20 WT/KO” value [2] was 6.1, the “KATNA1 WT/KO” value [2] was 2.1 and the “LGP2 WT/KO” value [2] was 2.4. The “LHX2 WT/KO” value [2] was 11.9, the “LOC129607 WT/KO” value [2] was 7.6 and the “MAFK WT/KO” value [2] was 3.0. For the same compound, the “MARCH5 WT/KO” value [2] was 2.5, the “MOV10 WT/KO” value [2] was 3.4 and the “MX1 WT/KO” value [2] was 20.7. The “MX2 WT/KO” value [2] was 74.3, the “NMI WT/KO” value [2] was 2.9 and the “NP WT/KO” value [2] was 2.5. For the same compound, the “NT5C3 WT/KO” value [2] was 3.6, the “OAS1B WT/KO” value [2] was 6.2 and the “OASL WT/KO” value [2] was 1.8. The “P4HA1 WT/KO” value [2] was 1.2, the “P8 WT/KO” value [2] was 2.9 and the “PARP9 WT/KO” value [2] was 2.8. For the same compound, the “PELI1 WT/KO” value [2] was 1.4, the “PGF WT/KO” value [2] was 1.3 and the “PLAU WT/KO” value [2] was 1.7. For the same compound, the “PPP1R15A WT/KO” value [2] was 3.4, the “PTX3 WT/KO” value [2] was 4.0 and the “PVRL2 WT/KO” value [2] was 2.1. For the same compound, the “PVRL4 WT/KO” value [2] was 2.1, the “REL WT/KO” value [2] was 2.8 and the “RGC32 WT/KO” value [2] was 2.9. The “RIPK2 WT/KO” value [2] was 2.5, the “RSAD2 WT/KO” value [2] was 2.0 and the “SAP30 WT/KO” value [2] was 2.4. The “SAV1 WT/KO” value [2] was 1.2, the “SDC4 WT/KO” value [2] was 1.2 and the “SECTM1 WT/KO” value [2] was 15.0. For the same compound, the “SLC7A2 WT/KO” value [2] was 2.0, the “SOAT1 WT/KO” value [2] was 1.8 and the “SOCS1 WT/KO” value [2] was 16.7. The “STAT2 WT/KO” value [2] was 2.3, the “TGTP WT/KO” value [2] was 38.6 and the “TLK2 WT/KO” value [2] was 3.0. The “TLR3 WT/KO” value [2] was 6.8, the “TMOD3 WT/KO” value [2] was 1.5 and the “TNF WT/KO” value [2] was 5.0. The “TNFRSF11B WT/KO” value [2] was 0.9, the “TNFSF9 WT/KO” value [2] was 3.0 and the “TOR1AIP1 WT/KO” value [2] was 2.4. The “TPST1 WT/KO” value [2] was 1.1, the “TREX1 WT/KO” value [2] was 2.0 and the “TRIM21 WT/KO” value [2] was 3.2. The “TRIM25 WT/KO” value [2] was 1.8, the “TRIM34 WT/KO” value [2] was 1.7 and the “USP18 WT/KO” value [2] was 11.4. For the same compound, the “VCAM1 WT/KO” value [2] was 2.1, the “ZBP1 WT/KO” value [2] was 3.7 and the “ZNF313 WT/KO” value [2] was 2.1.
